Measured values: US20260356826A1, “SALTS OF AMINO QUINAZOLINE DERIVATIVES” (CHIESI FARMACEUTICI S.P.A., priority 2023, published 2026)
≈ marks a conversion by molar mass, not a printed value. Entries after “also recorded” stand apart in the source; their conditions may differ. Where a name gives a salt, the structure may show the parent alone. Read-outs that look alike come from different tables or passages of the source.

What was measured:
Format in all cases: physicochemical
[1] = Dissolution in simulated oral fluids (FaSSGF, FaSSIF, FeSSIF), DISS Profiler, 37 °C, 24 hours; conditions: for Maximum solubility: 1440 min
Method: The dissolution of mesylate salt Form 2 of the compound A in comparison with the free base Form A of compound A was tested in all simulated oral fluids. The experiments were conducted with DISS Profiler 6 Channel Pion. The experiments were conducted until 24 hours at 37 °C.
The mediums used, namely FaSSGF (Fasted State Simulated Gastric Fluid), FaSSIF (Fasted State Simulated Intestinal Fluid) and FeSSIF (Fed State Simulated Intestinal Fluid) were obtained from Biorelevant.com Ltd. The medium compositions are listed in table 9. The saturated solution concentrations were about 14-15 mg/ml (as free base) in FaSSGF and about 3-4 mg/ml (as free base) in FaSSIF and FeSSIF.

[2] = Two-sector dissolution study (FaSSGF then FaSSIF), parachute effect; conditions: for Estimated supersaturation duration (parachute effect): second experiment, pH adjusted to 6.5 after FaSSIF addition; for Time of precipitation: protocol of the second experiment
Method: The dissolution behaviour of mesylate salt Form 2 of compound A was studied in a two-sector model in comparison with free base Form A to evaluate a possible “spring-parachute effect”.
The parachute effect is observable in two-sector dissolution studies. A test compound is incubated with FaSSGF and its concentration is monitored over time. FaSSIF is then added to the solution whilst continuing the monitoring. The period of time in which the test compound remains in solution without or before precipitating refers to the supersaturation time and represents the parachute effect.
The experiment was conducted using DISS Profiler 6 Channel Pion. The free base Form A and mesylate salt Form 2 of compound A were each incubated in 8 ml of FaSSGF (pH 1.6) for 20 minutes at the concentration of 350 mg/250 ml. 16 ml of FaSSIF concentrated 1.5× (pH 6.5) was added with an incubation time of 180 minutes. The resulting target pH should be approximately 5-6. The experiment was conducted at 37 °C. The entire dissolution profile was monitored until the end of the experiment to evaluate a possible parachute effect, its duration and to evaluate the maximum solubility reached after the addition of FaSSIF.
A second experiment was conducted, with an additional step of adjusting the pH to 6.5 after FaSSIF addition. Both free base Form A and mesylate salt Form 2 of compound A were tested.
A third experiment was conducted on esylate salt Form 1 of compound A, using the same protocol of the second experiment, with free base Form A and mesylate salt Form 2 of compound A as controls. The experiment was aimed at evaluating comparatively a possible parachute effect of the esylate salt and its duration. Precipitation of the free base was observed after roughly 20 minutes, while precipitation of the esylate salt and mesylate salt were observed after 30 and 40 minutes respectively.

[3] = Formulations with polymer: drug content and appearance; conditions: for Found conc.: nominal 40 mg/ml
Source text: The formulation having a 0.05 M citrate buffer concentration was chosen to be tested with the addition of polymers to investigate the effect due to a potential viscosity increase.
Different percentage of polymers were used, e.g. 5% w/v of polyvinylpyrrolidone (PVP) 40 or 1% w/v HPMC.
The formulations were studied with or without the use of the surfactant D-α-tocopherol polyethylene glycol succinate (Vit. E TPGS, Sigma Aldrich; CAS: 9002-96-4) in 0.05 M citrate buffer at pH 2.5 at the nominal concentration of 40 mg/ml. To prepare the vehicle the proper amount of citric acid was dissolved in water in a volumetric flask, then the pH was increased up to 2.5 using 0.1 M NaOH. Then water was added and brought to the final volume. The polymers PVP 40 (Sigma Aldrich; CAS: 9003-39-8) or HPMC (viscosity 46-60 cP; Sigma Aldrich; CAS: 9004-65-3) were gently dissolved in citrate buffer and left under magnetic stirring for at least 1 hour to their complete hydration. When required, Vit. E TPGS was subsequently added to the media and gently left under magnetic stirring to avoid bubbles formation.
The required volume of vehicle was added to a known amount of Compound A free base Form A or Mesylate salt Form 2, then sonicated at RT for at least 10 min. The formulation was kept under magnetic stirring for at least 10 min before analysis.

[4] = Dynamic vapour sorption (DVS), hygroscopicity
Method: Moisture sorption/desorption data were collected on a TA Instruments Vapor Sorption Analyzer Q5000SA.
First step: sorption data was collected in the range 40% to 90% relative humidity (RH).
Second Step: desorption, sorption and desorption data were collected over a range of 0% to 90% RH at 10% RH intervals under a nitrogen purge. Samples were not dried prior to analysis. Equilibrium criteria used for analysis were less than 0.100% weight change in 20 minutes, with a maximum equilibration time of 1 hour if the weight criterion was not met. Data were not corrected for the initial moisture content of the samples. NaBr was used as humidity verification.
Moisture sorption/desorption data were also collected on a ProUmid SnS 23 equipped with a 23 autosampler following Method 1.
In the first step sorption data was collected in the range 0% to 90% RH. Samples were not dried prior to analysis.
In the second Step desorption, sorption and desorption data were collected over a range of 0% to 90% (RH) at 10% RH intervals under a nitrogen purge. Data were not corrected for the initial moisture content of the samples.

[5] = 1% w/v HPMC, 1% w/v Vit. E TPGS, 0.05 M citrate buffer pH 2.5
[6] = 5% w/v PVP, 1% w/v Vit. E TPGS, 0.05 M citrate buffer pH 2.5
[7] = 5% w/v PVP, 0.05 M citrate buffer pH 2.5

pH at the end of the experiment ([1]; FaSSGF) | Time to decrease of solubility / duration of sustained solubility ([1]; FaSSGF, 37 °C) | pH at the end of the experiment ([1]; FaSSIF) | Maximum solubility ([1]; FaSSIF, 37 °C, 24 hours) | pH at the end of the experiment ([1]; FeSSIF) | Estimated supersaturation duration (parachute effect) [2] | Time of precipitation ([2]; third experiment) | Appearance [3, 5] | Mean recovery [3, 5] | Found conc. [3, 5] | Appearance [3, 6] | Mean recovery [3, 6] | Found conc. [3, 6] | Appearance [3, 7] | Mean recovery [3, 7] | Found conc. [3, 7] | Compound | Dissolution behaviour ([1]; FaSSGF, 37 °C, 24 hours) | also measured
1.8 | at least 24 hours | 6.1 | 100 µg/mL | 5.0 | 14 min | 40 min | Solution | 111.10% | 44.44 mg/mL | Solution | 112.20% | 44.87 mg/mL | Solution | 116.30% | 46.51 mg/mL | COc1cc(-c2ccc(F)cn2)cc2c(N[C@H](C)c3noc(C)n3)ncnc12 [mesylate salt Form 2, (R)-6-(5-fluoropyridin-2-yl)-8-methoxy-N-(1-(5-methyl-1,2,4-oxadiazol-3-yl)ethyl)quinazolin-4-amine] | complete solubilisation was achieved; also recorded: no decrease in the solubility during the 24 hours | Maximum solubility ([1]; FaSSGF, 37 °C, 24 hours): 14000 µg/mL; Maximum solubility ([1]; FeSSIF, 37 °C, 24 hours): 70 µg/mL; solubility at 24 h ([1]; fassif, read-out: Solubility by UPLC/UV/MS at the end of the experiment): 30 µg/mL; solubility at 24 h ([1]; fessif, read-out: Solubility by UPLC/UV/MS at the end of the experiment): 170 µg/mL; pH measured at the end of the experiment ([2]; first experiment): 4.5; Precipitation after FaSSIF addition ([2]; first experiment, no pH adjustment): No precipitation was observed; Duration of the parachute effect compared to free base Form A ([2]; third experiment): longer duration of the parachute effect; Formulability in solution compared to free base Form A ([3]; with polymers, all excipients considered): better formulability in solution; Total weight gain (hygroscopicity) ([4]; between 0% and 90% RH): about 1.049 wt %
3.1 | approximately 3 hours | 6.4 | 40 µg/mL | 5.1 | 8 min | roughly 20 minutes | Suspension | 104.9% | 41.96 mg/mL | Suspension | 111.18% | 44.47 mg/mL | Suspension | 100.3% | 40.12 mg/mL | COc1cc(-c2ccc(F)cn2)cc2c(N[C@H](C)c3noc(C)n3)ncnc12 [free base Form A, (R)-6-(5-fluoropyridin-2-yl)-8-methoxy-N-(1-(5-methyl-1,2,4-oxadiazol-3-yl)ethyl)quinazolin-4-amine] | steady increase of solubility, but not complete solubilisation | solubility at 24 h ([1]; fassgf, 37 °C, 24 hours, read-out: Maximum solubility): ~11000 µg/mL (≈ 28.9 mM); solubility at 24 h ([1]; fessif, 37 °C, 24 hours, read-out: Maximum solubility): 100 µg/mL (≈ 0.263 mM); pH after the addition of FaSSIF ([2]; first experiment): 5.8; Precipitation start after FaSSIF addition ([2]; first experiment, no pH adjustment, 37 °C): about 10 minutes; Appearance ([3]; all formulations with polymer): suspensions; Total weight gain (hygroscopicity) ([4]; between 2.5% and 90% RH): about 0.249 wt %; Hygroscopicity ([4]; between 20% and 80% RH): No hygroscopicity was noted; Total water uptake ([4]; between 20% and 80% RH): 0.249%
